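Exposure lasted 48 hours, with cells grown in 96-well plates and compounds tested at five concentrations. At the GI50, growth is halved. The concentration for full growth arrest is given as TGI.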
Key:
Assay in all cases: DTP human tumour cell line panel, 48 h
HT29 colon = tested on: HT29 colon
SF-295 CNS = tested on: SF-295 CNS
MALME-3M melanoma = tested on: MALME-3M melanoma
MDA-N = tested on: MDA-N
NCI-H522 lung = tested on: NCI-H522 lung
SN12C renal = tested on: SN12C renal
SW-620 colon = tested on: SW-620 colon
NCI-H23 lung = tested on: NCI-H23 lung
OVCAR-5 ovarian = tested on: OVCAR-5 ovarian
SNB-75 CNS = tested on: SNB-75 CNS

CO[C@H]1SC[C@H](OC(C)=O)[C@H](OC(C)=O)[C@H]1OC(C)=O
TGI (HT29 colon): > 100 µM | TGI (SF-295 CNS): > 100 µM | TGI (MALME-3M melanoma): > 100 µM | TGI (MDA-N): > 100 µM | TGI (NCI-H522 lung): > 100 µM | TGI (SN12C renal): > 100 µM | TGI (SW-620 colon): > 100 µM | TGI (NCI-H23 lung): > 100 µM

C=C1OC(c2ccccc2NC)=NC12CCCCC2
TGI (HT29 colon): > 100 µM | TGI (OVCAR-5 ovarian): > 100 µM | TGI (SF-295 CNS): > 100 µM | TGI (MALME-3M melanoma): > 100 µM | TGI (MDA-N): > 100 µM | TGI (NCI-H522 lung): > 100 µM | TGI (SN12C renal): > 100 µM | TGI (SW-620 colon): > 100 µM | TGI (NCI-H23 lung): > 100 µM

CC(=O)OCC1OC(n2c(-c3ccccc3)c(N=Nc3ccccc3)c(C)c(C#N)c2=S)C(OC(C)=O)C(OC(C)=O)C1OC(C)=O (stereo not drawn)
TGI (HT29 colon): > 100 µM | TGI (OVCAR-5 ovarian): > 100 µM | TGI (SF-295 CNS): > 100 µM | TGI (MALME-3M melanoma): > 100 µM | TGI (MDA-N): > 100 µM | TGI (SNB-75 CNS): > 100 µM | TGI (SN12C renal): > 100 µM | TGI (SW-620 colon): > 100 µM | TGI (NCI-H23 lung): > 100 µM

CC[C@H](Nc1nc(C)nc(N)c1C#N)c1nc2cccc(NCc3ccc(C(=O)NO)cc3)c2c(=O)n1-c1ccccc1
GI50 (HT29 colon): 1.76 µM | TGI (HT29 colon): 4.45 µM | GI50 (OVCAR-5 ovarian): 1.51 µM | TGI (OVCAR-5 ovarian): 3.32 µM | GI50 (SF-295 CNS): 1.66 µM | TGI (SF-295 CNS): 3.14 µM | GI50 (MALME-3M melanoma): 1.48 µM | TGI (MALME-3M melanoma): 4.05 µM | GI50 (SNB-75 CNS): 1.73 µM | TGI (SNB-75 CNS): 7.27 µM | GI50 (NCI-H522 lung): 1.54 µM | TGI (NCI-H522 lung): 3.65 µM | GI50 (SN12C renal): 1.65 µM | TGI (SN12C renal): 3.92 µM | GI50 (SW-620 colon): 1.74 µM | TGI (SW-620 colon): 4.47 µM | GI50 (NCI-H23 lung): 1.83 µM | TGI (NCI-H23 lung): 4.05 µM

O=S(=O)(O)c1ccc(N=Nc2ccc(N=Nc3ccc(/C=C/c4ccc(N=[N+]([O-])c5ccc(/C=C/c6ccc(N=Nc7ccc(N=Nc8ccc(S(=O)(=O)O)cc8)cc7)cc6S(=O)(=O)O)c(S(=O)(=O)O)c5)cc4S(=O)(=O)O)c(S(=O)(=O)O)c3)cc2)cc1
TGI (HT29 colon): > 100 µM | TGI (OVCAR-5 ovarian): > 100 µM | TGI (SF-295 CNS): > 100 µM | TGI (MALME-3M melanoma): > 100 µM | TGI (SNB-75 CNS): > 100 µM | TGI (NCI-H522 lung): > 100 µM | TGI (SN12C renal): > 100 µM | TGI (SW-620 colon): > 100 µM | TGI (NCI-H23 lung): > 100 µM

Cc1cc(C)c2c(=O)cc(-c3cccc(F)c3)[nH]c2n1
TGI (HT29 colon): 1.8 µM | TGI (OVCAR-5 ovarian): > 100 µM | TGI (SF-295 CNS): 0.199 µM | TGI (MALME-3M melanoma): > 100 µM | TGI (SNB-75 CNS): > 100 µM | TGI (NCI-H522 lung): 0.141 µM | TGI (SN12C renal): 20.3 µM | TGI (NCI-H23 lung): 11.2 µM

Cn1c(=O)c2c(nc3n(Cc4ccccc4)c(=O)c(NCCCBr)cn23)n(C)c1=O
TGI (HT29 colon): > 100 µM | TGI (OVCAR-5 ovarian): > 100 µM | TGI (SF-295 CNS): > 100 µM | TGI (SNB-75 CNS): 97.7 µM | TGI (NCI-H522 lung): > 100 µM | TGI (SN12C renal): > 100 µM | TGI (SW-620 colon): > 100 µM | TGI (NCI-H23 lung): > 100 µM

Cc1cc(S(=O)(=O)Nc2n[nH]c(-c3ccccn3)n2)c(S)cc1Cl
TGI (HT29 colon): 41.7 µM | TGI (OVCAR-5 ovarian): 45.4 µM | TGI (MALME-3M melanoma): 60.3 µM | TGI (MDA-N): > 100 µM | TGI (SNB-75 CNS): 85.8 µM | TGI (NCI-H522 lung): 72.4 µM | TGI (SN12C renal): > 100 µM | TGI (SW-620 colon): 54.2 µM

CS(=O)(=O)Nc1ccc2c(c1)N(S(C)(=O)=O)CC2CCl (stereo not drawn)
TGI (HT29 colon): > 100 µM | TGI (OVCAR-5 ovarian): > 100 µM | TGI (SF-295 CNS): > 100 µM | TGI (MALME-3M melanoma): > 100 µM | TGI (SNB-75 CNS): > 100 µM | TGI (NCI-H522 lung): > 100 µM | TGI (SN12C renal): > 100 µM | TGI (SW-620 colon): > 100 µM | TGI (NCI-H23 lung): > 100 µM

COc1ccc(Nc2nc(N)c(C(=O)c3c[nH]c4ccccc34)s2)cc1
TGI (HT29 colon): 4.57 µM | TGI (OVCAR-5 ovarian): > 80.5 µM | TGI (SF-295 CNS): > 100 µM | TGI (MALME-3M melanoma): 21.6 µM | TGI (MDA-N): 0.878 µM | TGI (SNB-75 CNS): 6.56 µM | TGI (SN12C renal): > 100 µM | TGI (SW-620 colon): > 100 µM | TGI (NCI-H23 lung): > 95 µM

C=C1N(C=O)C(C)(C)N(O)C1(C)C
TGI (HT29 colon): > 100 µM | TGI (OVCAR-5 ovarian): > 100 µM | TGI (SF-295 CNS): > 100 µM | TGI (MALME-3M melanoma): > 100 µM | TGI (SNB-75 CNS): > 100 µM | TGI (SN12C renal): > 100 µM | TGI (SW-620 colon): > 100 µM | TGI (NCI-H23 lung): > 100 µM

COc1ccccc1CN=C1Nc2ccncc2S(=O)(=O)N1c1ccccc1
TGI (HT29 colon): > 100 µM | TGI (OVCAR-5 ovarian): > 100 µM | TGI (SF-295 CNS): > 100 µM | TGI (MALME-3M melanoma): > 100 µM | TGI (NCI-H522 lung): > 100 µM | TGI (SN12C renal): > 100 µM | TGI (SW-620 colon): > 100 µM | TGI (NCI-H23 lung): > 100 µM

Cc1cc(S(=O)(=O)/N=C(/C(=C=[N-])C#N)[n+]2ccc(N(C)C)cc2)c(SCC(=O)O)cc1Cl
TGI (HT29 colon): > 100 µM | TGI (OVCAR-5 ovarian): > 100 µM | TGI (SF-295 CNS): > 100 µM | TGI (MALME-3M melanoma): 64.5 µM | TGI (MDA-N): > 100 µM | TGI (NCI-H522 lung): > 100 µM | TGI (SN12C renal): > 100 µM | TGI (NCI-H23 lung): > 100 µM

C=C1C(OC2O[C@@H]3O[C@@]4(C)CC[C@H]5[C@H](C)CC[C@@H](C2=C)[C@@]35O4)O[C@@H]2O[C@@]3(C)CC[C@H]4[C@H](C)CC[C@@H]1[C@@]24O3 (stereo partly drawn)
TGI (HT29 colon): > 50 µM | TGI (OVCAR-5 ovarian): > 50 µM | TGI (SF-295 CNS): > 50 µM | TGI (MALME-3M melanoma): > 50 µM | TGI (MDA-N): > 50 µM | TGI (NCI-H522 lung): > 50 µM | TGI (SN12C renal): > 50 µM | TGI (SW-620 colon): > 50 µM | TGI (NCI-H23 lung): > 50 µM

Cc1cc(C)nc(NS(=O)(=O)c2ccc(Nc3c4ccccc4nc4c(C(=O)N5CCN(CCOS(C)(=O)=O)CC5)cccc34)cc2)n1
TGI (HT29 colon): > 100 µM | TGI (OVCAR-5 ovarian): > 100 µM | TGI (SF-295 CNS): > 100 µM | TGI (MALME-3M melanoma): > 100 µM | TGI (SNB-75 CNS): > 100 µM | TGI (SN12C renal): > 100 µM | TGI (NCI-H23 lung): > 100 µM

N#C/C(=C/n1c(=S)[nH]c2ccc([N+](=O)[O-])cc21)C(N)=O
TGI (HT29 colon): > 100 µM | TGI (OVCAR-5 ovarian): > 100 µM | TGI (SF-295 CNS): > 100 µM | TGI (MALME-3M melanoma): > 100 µM | TGI (MDA-N): > 100 µM | TGI (SNB-75 CNS): > 100 µM | TGI (SN12C renal): > 100 µM | TGI (SW-620 colon): > 100 µM | TGI (NCI-H23 lung): > 100 µM

CSC(SC)=C(C(=O)O)P(=O)(O)O
TGI (HT29 colon): > 100 µM | TGI (OVCAR-5 ovarian): > 100 µM | TGI (SF-295 CNS): > 100 µM | TGI (MALME-3M melanoma): > 100 µM | TGI (MDA-N): > 100 µM | TGI (NCI-H522 lung): > 100 µM | TGI (SN12C renal): > 100 µM | TGI (SW-620 colon): > 100 µM | TGI (NCI-H23 lung): > 100 µM

COC(=O)C1(CCCCCBr)CCCCCCCCCCC1=O (stereo not drawn)
TGI (HT29 colon): > 100 µM | TGI (OVCAR-5 ovarian): > 100 µM | TGI (SF-295 CNS): > 100 µM | TGI (MALME-3M melanoma): 47.6 µM | TGI (MDA-N): > 100 µM | TGI (NCI-H522 lung): 47.5 µM | TGI (SN12C renal): > 100 µM | TGI (SW-620 colon): > 100 µM | TGI (NCI-H23 lung): > 100 µM

S=C(N/N=C\C(=N/NC(=S)N1CCCCC1)c1ccccc1)N1CCCCC1
TGI (HT29 colon): 4.61 µM | TGI (OVCAR-5 ovarian): 3.33 µM | TGI (SF-295 CNS): 3.91 µM | TGI (MALME-3M melanoma): 3.57 µM | TGI (MDA-N): > 100 µM | TGI (SNB-75 CNS): 3.72 µM | TGI (NCI-H522 lung): 3.77 µM | TGI (SN12C renal): 3.51 µM | TGI (SW-620 colon): 3.83 µM

COC(=O)C1C(C(=O)OC)C2(OC(c3ccc(Cl)cc3)=CC2=O)C12OC(c1ccc(Cl)cc1)=CC2=O (stereo not drawn)
TGI (HT29 colon): 45.2 µM | TGI (OVCAR-5 ovarian): 95.1 µM | TGI (SF-295 CNS): 64.3 µM | TGI (MALME-3M melanoma): 31.6 µM | TGI (MDA-N): 47.3 µM | TGI (NCI-H522 lung): 36.1 µM | TGI (SN12C renal): 52.8 µM | TGI (SW-620 colon): > 100 µM | TGI (NCI-H23 lung): 52.2 µM

COc1cc(S(=O)(=O)Nc2ccc(C(=O)/C=C/c3ccc(O)cc3)cc2)ccc1F
GI50 (HT29 colon): > 100 µM | TGI (HT29 colon): > 100 µM | GI50 (OVCAR-5 ovarian): > 100 µM | TGI (OVCAR-5 ovarian): > 100 µM | GI50 (SF-295 CNS): > 100 µM | TGI (SF-295 CNS): > 100 µM | GI50 (MALME-3M melanoma): 35.1 µM | TGI (MALME-3M melanoma): > 100 µM | GI50 (SNB-75 CNS): 87.5 µM | TGI (SNB-75 CNS): > 100 µM | GI50 (SN12C renal): 2.61 µM | TGI (SN12C renal): 89.7 µM | GI50 (SW-620 colon): > 100 µM | TGI (SW-620 colon): > 100 µM | GI50 (NCI-H23 lung): > 100 µM | TGI (NCI-H23 lung): > 100 µM

COc1cccc2c1C(=O)c1c(O)c3c(c(O)c1C2=O)C[C@H](O)C[C@@H]3OC1CC(N)C(O)C(C)O1 (stereo partly drawn)
TGI (HT29 colon): 14.1 µM | TGI (OVCAR-5 ovarian): 11.8 µM | TGI (SF-295 CNS): 7.35 µM | TGI (MALME-3M melanoma): 3.57 µM | TGI (SNB-75 CNS): 15.3 µM | TGI (NCI-H522 lung): 5.86 µM | TGI (NCI-H23 lung): 3.18 µM
